Values quoted from earlier work in patent publication US6348502B1, “Formulations for the treatment of gastro-oesophageal reflux” (Reckitt & Colman Products Limited, priority 1998, dated 2002).

Columns and labels:
[1] = tested on: acetic-acid induced gastric ulcers
gastric acid secretion = conditions: rats
[2] = tested on: topical injury by noxious agents such as ethanol; conditions: white rabbits, administered at the gastro-oesophageal junction via cannulae
[3] = tested on: capsaicin-sensitive neurones; conditions: rats; stimulation of capsaicin-sensitive neurones

COc1cc(CNC(=O)CCCC/C=C/C(C)C)ccc1O [capsaicin, (E)-(N)-[(4-hydroxy-3-methoxphenyl)-methyl]-8-methyl-6-nonenamide]
protection of the gastric mucosa against experimental injury ([1]; acetic-acid induced gastric ulceration in rats): protects the gastric mucosa against experimental injury | healing of acetic-acid induced gastric ulcers ([1]; rats, introduced directly into an ex vivo chamber): promotes the healing | healing of acetic-acid induced gastric ulcers after prior administration of cimetidine ([1]; rats, prior administration of cimetidine): blunted | effect on gastric acid secretion (gastric acid secretion): no effect | mucosal protection against topical injury [2]: provides mucosal protection | duodenal bicarbonate secretion [3]: increase duodenal bicarbonate secretion
